Data as given in ChEMBL document CHEMBL5226302, “Small-Molecule Inhibitors Targeting the Canonical WNT Signaling Pathway for the Treatment of Cancer” (J Med Chem, 2021).
In brackets after ≈: the same amount, converted by molar mass.

What was measured:
[1] = target: T1, Poly [ADP-ribose] polymerase tankyrase-2 (Homo sapiens, UniProt Q9H2K2); experiment: Inhibition of TNKS2 (unknown origin)
T1 sequence (Q9H2K2 whole entry): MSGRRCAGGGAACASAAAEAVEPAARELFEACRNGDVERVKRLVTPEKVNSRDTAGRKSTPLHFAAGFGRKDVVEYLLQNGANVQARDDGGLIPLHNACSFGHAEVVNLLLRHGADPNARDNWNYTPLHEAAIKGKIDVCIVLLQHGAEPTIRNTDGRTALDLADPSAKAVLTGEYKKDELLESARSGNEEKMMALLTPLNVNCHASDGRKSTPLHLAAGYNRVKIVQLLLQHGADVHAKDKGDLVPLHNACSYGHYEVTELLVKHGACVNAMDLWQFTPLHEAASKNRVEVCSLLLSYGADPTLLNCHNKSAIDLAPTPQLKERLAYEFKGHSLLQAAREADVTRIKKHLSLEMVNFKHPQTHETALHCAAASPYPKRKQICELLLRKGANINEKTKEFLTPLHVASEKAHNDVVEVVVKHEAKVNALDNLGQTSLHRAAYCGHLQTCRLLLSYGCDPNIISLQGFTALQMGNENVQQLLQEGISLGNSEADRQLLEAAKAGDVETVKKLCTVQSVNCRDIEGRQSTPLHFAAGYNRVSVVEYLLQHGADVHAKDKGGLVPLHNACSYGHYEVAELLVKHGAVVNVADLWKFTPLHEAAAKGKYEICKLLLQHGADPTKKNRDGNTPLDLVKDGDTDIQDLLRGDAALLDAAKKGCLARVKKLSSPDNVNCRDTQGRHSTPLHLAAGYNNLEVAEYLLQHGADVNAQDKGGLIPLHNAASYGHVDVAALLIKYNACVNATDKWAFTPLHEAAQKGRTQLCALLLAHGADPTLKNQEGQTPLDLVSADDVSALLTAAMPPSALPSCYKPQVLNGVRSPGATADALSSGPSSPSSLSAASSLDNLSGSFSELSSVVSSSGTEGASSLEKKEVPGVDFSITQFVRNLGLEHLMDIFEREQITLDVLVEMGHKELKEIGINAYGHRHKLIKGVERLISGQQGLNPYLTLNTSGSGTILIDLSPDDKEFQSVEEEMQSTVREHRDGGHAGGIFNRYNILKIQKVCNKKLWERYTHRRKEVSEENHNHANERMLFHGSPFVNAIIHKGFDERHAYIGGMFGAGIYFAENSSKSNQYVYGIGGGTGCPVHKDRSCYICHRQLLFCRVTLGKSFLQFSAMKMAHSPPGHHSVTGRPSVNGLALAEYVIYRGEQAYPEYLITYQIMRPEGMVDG

[2] = Chemical stability of the compound at pH 7.4 measured after 24 hrs; assay type: physicochemical; settings: buffer, read-out: Stability
[3] = Inhibition of Wnt pathway (unknown origin); design: species or system Homo sapiens
[4] = Inhibition of TBC (unknown origin); design: species or system Homo sapiens
[5] = Half life of compound in PBS buffer; assay type: physicochemical
[6] = Plasma concentration in mouse at 5 mg/kg, po measured after 24 hr; assay type: ADME, organism-based
[7] = In vivo inhibition of MMTV-WNT1 in mouse model assessed as reduction in tumor growth at 0.3 mg/kg, po administered once daily for 2 weeks; assay type: functional; settings: 336 h
[8] = Oral bioavailability in dog; assay type: ADME, organism-based, Canis lupus familiaris; settings: in vivo
[9] = In vivo inhibition of MMTV-WNT1 in mouse model assessed as reduction in tumor growth at 3 mg/kg, po administered once daily for 2 weeks; assay type: functional; settings: 336 h
[10] = Oral bioavailability in mouse; assay type: ADME, organism-based; settings: in vivo
[11] = Oral bioavailability in rat at 2 mg/kg; assay type: ADME, organism-based; settings: in vivo
[12] = In vivo inhibition of MMTV-WNT1 in mouse model assessed as reduction in tumor growth at 1 mg/kg, po administered once daily for 2 weeks; assay type: functional; settings: 336 h
[13] = target: T1, Poly [ADP-ribose] polymerase tankyrase-2; experiment: Binding affinity to TNKS2 (unknown origin) assessed as inhibition constant
[14] = Oral bioavailability in mouse at 2.5 mg/kg; assay type: ADME, organism-based; settings: in vivo
[15] = Solubility of the compound at pH 7.4; assay type: physicochemical; settings: buffer
[16] = target: T1, Poly [ADP-ribose] polymerase tankyrase-2; experiment: Inhibition of human TNKS2 (873 to 1162 residues) measured after 15 hrs in presence of NAD+ by fluorescence assay
[17] = target: T2, Poly [ADP-ribose] polymerase tankyrase-1 (Homo sapiens, UniProt O95271); experiment: Inhibition of human TNKS1 (1030 to 1317 residues) measured after 20 hrs
T2 sequence (O95271 whole entry): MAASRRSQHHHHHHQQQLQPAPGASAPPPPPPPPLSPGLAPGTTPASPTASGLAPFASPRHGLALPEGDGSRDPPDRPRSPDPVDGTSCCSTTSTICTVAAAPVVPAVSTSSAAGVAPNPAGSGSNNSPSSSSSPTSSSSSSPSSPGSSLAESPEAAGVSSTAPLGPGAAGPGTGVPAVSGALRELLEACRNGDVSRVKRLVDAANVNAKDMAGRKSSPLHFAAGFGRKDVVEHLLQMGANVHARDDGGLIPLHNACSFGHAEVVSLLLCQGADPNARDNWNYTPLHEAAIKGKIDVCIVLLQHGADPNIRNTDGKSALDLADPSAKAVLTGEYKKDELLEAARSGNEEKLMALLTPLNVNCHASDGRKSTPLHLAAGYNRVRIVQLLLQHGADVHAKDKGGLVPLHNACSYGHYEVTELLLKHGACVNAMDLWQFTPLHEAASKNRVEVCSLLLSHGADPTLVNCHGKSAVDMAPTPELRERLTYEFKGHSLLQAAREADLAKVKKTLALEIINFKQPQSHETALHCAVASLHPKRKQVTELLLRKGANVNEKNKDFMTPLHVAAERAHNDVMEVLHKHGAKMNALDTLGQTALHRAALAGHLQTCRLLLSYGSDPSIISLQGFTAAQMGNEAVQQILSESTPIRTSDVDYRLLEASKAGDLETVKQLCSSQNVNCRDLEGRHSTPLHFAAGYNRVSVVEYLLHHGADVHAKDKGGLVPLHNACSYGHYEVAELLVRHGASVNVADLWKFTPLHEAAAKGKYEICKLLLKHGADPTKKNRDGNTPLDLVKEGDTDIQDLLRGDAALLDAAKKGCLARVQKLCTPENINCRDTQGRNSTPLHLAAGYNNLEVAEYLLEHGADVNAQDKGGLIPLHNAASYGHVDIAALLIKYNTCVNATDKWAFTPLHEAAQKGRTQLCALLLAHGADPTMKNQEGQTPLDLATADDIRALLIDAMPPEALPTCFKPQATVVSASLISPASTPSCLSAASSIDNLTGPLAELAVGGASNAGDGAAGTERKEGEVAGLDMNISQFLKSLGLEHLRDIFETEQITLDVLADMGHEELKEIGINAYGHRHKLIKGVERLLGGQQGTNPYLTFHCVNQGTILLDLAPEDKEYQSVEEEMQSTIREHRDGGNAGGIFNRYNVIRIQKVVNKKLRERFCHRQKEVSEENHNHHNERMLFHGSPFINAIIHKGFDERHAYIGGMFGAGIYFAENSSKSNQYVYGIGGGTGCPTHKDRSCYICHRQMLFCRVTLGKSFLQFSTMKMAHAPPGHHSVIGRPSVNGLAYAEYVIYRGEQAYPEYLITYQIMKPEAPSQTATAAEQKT

[18] = tested on: HeLa; experiment: Antiproliferative activity against human HeLa cell line assessed as cell growth inhibition; assay type: functional, cell-based
[19] = target: T1, Poly [ADP-ribose] polymerase tankyrase-2; experiment: Binding affinity to human TNKS2 ARC4 assessed as dissociation constant
[20] = cells; settings: Homo sapiens, COLO 320DM
[21] = In vivo inhibition of WNT1 in mouse model assessed as reduction in tumor volume by measuring T/C ratio at 3 mg/kg; assay type: functional
[22] = In vivo inhibition of WNT1 in mouse model assessed as reduction in tumor volume by measuring T/C ratio at 1 mg/kg; assay type: functional
[23] = target: Catenin beta-1/Transcription factor 7 (Homo sapiens, UniProt P35222+P36402); experiment: Inhibition of beta catenin/TCF (unknown origin) by immunoprecipitation method; assay type: protein assay
[24] = tested on: HEK293; experiment: Antitumor activity against human HEK293 cells xenografted in […] assessed as tumor growth inhibition at 10 mg/kg relative to control; assay type: functional; settings: read-out: TGI
[25] = Oral bioavailability in mouse at 10 mg/kg; assay type: ADME, organism-based; settings: in vivo
[26] = tested on: MG-63; experiment: Antitumor activity against human MG-63 cells xenografted in osteosarcoma mouse model assessed as tumor growth inhibition at 5 mg/kg relative to control; assay type: functional; settings: read-out: TGI
[27] = target: Poly [ADP-ribose] polymerase 1 (Homo sapiens, UniProt P09874); experiment: Inhibition of human recombinant PARP1 incubated for 30 mins in the presence of NAD
[28] = target: Poly [ADP-ribose] polymerase 2 (Homo sapiens, UniProt Q9UGN5); experiment: Inhibition of PARP2 (unknown origin) using NAD as substrate incubated for 1 min
[29] = target: T2, Poly [ADP-ribose] polymerase tankyrase-1; experiment: Inhibition of TNKS1 (unknown origin)

Catenin beta-1/Transcription factor 7, sequence (P36402 whole entry): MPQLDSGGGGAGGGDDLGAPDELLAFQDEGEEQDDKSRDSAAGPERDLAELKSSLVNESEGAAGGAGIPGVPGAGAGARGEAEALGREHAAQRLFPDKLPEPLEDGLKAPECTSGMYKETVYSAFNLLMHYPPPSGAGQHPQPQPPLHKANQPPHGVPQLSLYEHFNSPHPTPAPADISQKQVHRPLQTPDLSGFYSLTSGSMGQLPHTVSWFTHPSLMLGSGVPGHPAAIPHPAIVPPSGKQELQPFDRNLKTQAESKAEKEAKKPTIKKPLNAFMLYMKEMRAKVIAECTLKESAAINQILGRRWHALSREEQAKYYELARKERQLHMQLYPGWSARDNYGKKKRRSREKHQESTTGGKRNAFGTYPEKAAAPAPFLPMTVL
Catenin beta-1/Transcription factor 7, sequence (P35222 whole entry): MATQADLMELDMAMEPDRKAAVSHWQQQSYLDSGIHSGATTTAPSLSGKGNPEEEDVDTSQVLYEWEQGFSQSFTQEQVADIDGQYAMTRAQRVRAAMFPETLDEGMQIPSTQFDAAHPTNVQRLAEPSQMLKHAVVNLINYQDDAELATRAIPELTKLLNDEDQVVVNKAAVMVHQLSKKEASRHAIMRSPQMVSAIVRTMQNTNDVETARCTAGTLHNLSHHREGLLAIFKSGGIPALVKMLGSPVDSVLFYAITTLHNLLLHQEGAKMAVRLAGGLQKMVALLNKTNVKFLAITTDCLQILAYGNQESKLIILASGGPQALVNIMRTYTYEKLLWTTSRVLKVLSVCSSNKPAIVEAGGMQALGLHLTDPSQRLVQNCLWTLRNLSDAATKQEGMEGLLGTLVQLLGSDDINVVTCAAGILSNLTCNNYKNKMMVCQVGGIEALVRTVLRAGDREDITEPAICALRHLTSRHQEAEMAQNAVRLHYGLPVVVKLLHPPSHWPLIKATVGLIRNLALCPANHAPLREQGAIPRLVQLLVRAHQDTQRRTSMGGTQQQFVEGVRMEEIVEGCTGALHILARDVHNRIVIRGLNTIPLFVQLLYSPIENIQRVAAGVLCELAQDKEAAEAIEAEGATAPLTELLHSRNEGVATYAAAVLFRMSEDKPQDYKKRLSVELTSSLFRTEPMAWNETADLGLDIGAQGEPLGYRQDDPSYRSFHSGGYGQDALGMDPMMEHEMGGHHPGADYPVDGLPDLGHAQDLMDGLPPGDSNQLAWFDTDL
Poly [ADP-ribose] polymerase 2, sequence (Q9UGN5 whole entry): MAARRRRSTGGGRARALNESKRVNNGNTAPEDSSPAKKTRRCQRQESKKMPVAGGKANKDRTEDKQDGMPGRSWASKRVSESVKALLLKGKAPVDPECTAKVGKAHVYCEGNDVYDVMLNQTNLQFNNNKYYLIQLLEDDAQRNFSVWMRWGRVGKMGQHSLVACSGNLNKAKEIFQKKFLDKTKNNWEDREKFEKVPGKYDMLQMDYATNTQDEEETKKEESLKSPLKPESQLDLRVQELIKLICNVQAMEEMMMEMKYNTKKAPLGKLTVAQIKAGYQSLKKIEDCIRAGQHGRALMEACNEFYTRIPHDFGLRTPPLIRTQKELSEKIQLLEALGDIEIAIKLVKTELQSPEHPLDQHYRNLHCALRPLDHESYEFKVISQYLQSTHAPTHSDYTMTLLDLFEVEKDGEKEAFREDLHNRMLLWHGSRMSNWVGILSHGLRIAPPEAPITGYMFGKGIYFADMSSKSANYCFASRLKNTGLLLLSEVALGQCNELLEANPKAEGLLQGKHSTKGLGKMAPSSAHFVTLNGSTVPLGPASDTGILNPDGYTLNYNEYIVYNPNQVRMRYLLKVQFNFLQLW
Poly [ADP-ribose] polymerase 1, sequence (P09874 whole entry): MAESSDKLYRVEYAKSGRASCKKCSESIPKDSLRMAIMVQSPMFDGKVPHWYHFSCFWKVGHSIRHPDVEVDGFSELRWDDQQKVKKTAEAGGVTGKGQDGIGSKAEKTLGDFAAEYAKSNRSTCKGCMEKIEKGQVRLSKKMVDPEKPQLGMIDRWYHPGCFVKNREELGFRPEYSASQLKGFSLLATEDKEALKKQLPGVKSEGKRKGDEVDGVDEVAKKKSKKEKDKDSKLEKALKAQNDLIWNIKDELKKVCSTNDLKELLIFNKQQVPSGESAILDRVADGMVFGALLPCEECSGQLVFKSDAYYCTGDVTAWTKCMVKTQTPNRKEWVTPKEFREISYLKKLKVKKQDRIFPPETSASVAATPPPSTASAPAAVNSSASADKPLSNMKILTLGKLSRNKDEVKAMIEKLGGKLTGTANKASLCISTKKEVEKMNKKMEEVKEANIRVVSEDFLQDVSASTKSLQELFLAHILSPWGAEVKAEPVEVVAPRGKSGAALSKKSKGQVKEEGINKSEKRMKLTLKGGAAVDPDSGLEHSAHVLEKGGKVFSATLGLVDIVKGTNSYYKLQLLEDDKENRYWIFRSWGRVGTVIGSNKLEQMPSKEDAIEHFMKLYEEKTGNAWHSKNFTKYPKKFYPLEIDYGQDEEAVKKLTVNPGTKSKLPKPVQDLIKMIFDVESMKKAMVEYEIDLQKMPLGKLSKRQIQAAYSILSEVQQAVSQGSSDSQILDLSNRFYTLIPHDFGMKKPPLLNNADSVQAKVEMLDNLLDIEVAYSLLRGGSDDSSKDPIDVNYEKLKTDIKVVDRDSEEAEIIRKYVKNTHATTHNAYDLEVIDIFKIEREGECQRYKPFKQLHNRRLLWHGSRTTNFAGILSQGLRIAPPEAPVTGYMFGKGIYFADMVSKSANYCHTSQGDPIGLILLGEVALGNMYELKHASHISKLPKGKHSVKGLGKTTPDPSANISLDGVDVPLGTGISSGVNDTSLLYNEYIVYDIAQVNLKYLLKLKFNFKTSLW

## COc1ccc(C2(CNC(=O)c3ccc(NC(=O)c4ccco4)cc3)CCOCC2)cc1
[1]
  IC50: 830 nM

## Cc1cc(-c2ccc(OC(C)C(=O)Nc3ccc(-c4cnccn4)cn3)cc2)ccn1 (centres undefined)
[2]
  remaining at 24 h: 71%
[3]
  IC50: 0.11 nM

## COc1ccccc1NC(=O)c1ccc(NC(=O)CCc2nc3ccccc3c(=O)[nH]2)cc1
[4]
  IC50: 160 nM
[5]
  half-life: 0.667 h

## Cc1cc(-c2ccc(CC(=O)Nc3ccc(-c4cccnc4)cc3)cc2)ccn1
[6]
  concentration at 24 h: 1 nM
[3]
  IC50: 0.074 nM

## CC(=O)N1CCN(c2ccc(NC(=O)Cc3cnc(-c4ccnc(F)c4)c(C)c3)nc2)CC1
[3]
  IC50: 0.8 nM
[7]
  inhibition in vivo at 0.3 mg/kg: 15%
[8]
  bioavailability: 96%
[9]
  inhibition in vivo at 3 mg/kg: 84%
[10]
  bioavailability: 72%
[11]
  bioavailability: 72%
[12]
  inhibition in vivo at 1 mg/kg: 74%

## CCc1ccc(OCC(=O)Nc2sc(C)c(C)c2C(N)=O)c(F)c1
[13]
  Ki: 27900 nM

## O=C(COc1ccc(-n2ccnc2)cc1)Nc1ccc(-c2ccccc2)cc1
[14]
  bioavailability: < 1%
[15]
  solubility: < 1 µg/mL

## CN1CCCc2c1cc(-c1ccc(Br)cc1)[nH]c2=O
[16]
  IC50: 6.1 nM
[17]
  IC50: 423 nM

## N#Cc1ccc(Oc2ccc(NC(=O)CCSc3nc4ccccc4c(=O)[nH]3)cc2)cc1
[4]
  IC50: 1.9 nM
[5]
  half-life: 2.8 h

## O=C(CSc1nc2c(c(=O)n1-c1ccccc1)SCC2)Nc1ccc(-c2ccccc2)cn1
[18]
  EC50: 0.5 nM

## C[C@H](Nc1ccc(-c2ccnn2C)nc1)C(=O)Nc1ccc(-c2cccnc2)cn1
[14]
  bioavailability: 100%
[15]
  solubility: 73 µg/mL (≈ 183 µM)

## CC(=O)N[C@@H](CCCNC(=N)N)C(=O)N[C@@H](CCC(=O)O)C(=O)N[C@H]1CCCCn2cc(nn2)CCCCCc2cn(nn2)CCCC[C@H](C(=O)N[C@H](CCC(=O)O)C(N)=O)NC(=O)CNC(=O)[C@@H](CC(=O)O)NC(=O)CNC1=O
[19]
  Kd: 2800 nM

## Nc1nonc1NC(=O)Cn1c2ccccc2c2nc3nonc3nc21
[20]
  IC50: 31000 nM

## Cc1cc(-c2ccc(CNC(=O)c3ccc4c(c3)[nH]c3ccccc34)cc2F)ccn1
[3]
  IC50: 0.5 nM

## Cc1cc(-c2ccc(CC(=O)Nc3ccc4c(c3)[nH]c3ccccc34)cc2)ccn1
[3]
  IC50: 2.3 nM

## COc1ccc(-n2c(C(=O)NCC(=O)Nc3nc4ccc(OC)cc4s3)nc3ccccc3c2=O)cc1
[3]
  IC50: 58 nM

## Cc1cc(-c2ncc(CC(=O)Nc3ccc(-c4cnccn4)cn3)cc2C)ccn1 [WNT-974]
[21]
  inhibition in vivo at 3 mg/kg: 63%
[3]
  IC50: 1 nM
[22]
  inhibition in vivo at 1 mg/kg: 47%

## CN1C(=O)C2=C(C1=O)N(CC(=O)Nc1ccc(-c3nccs3)cc1)CCC2
[15]
  solubility: 15 µg/mL (≈ 39.2 µM)

## O=C1[C@H](Cc2ccc(O)cc2)N2C(=O)CCN(C(=O)NCc3ccccc3)[C@H]2CN1Cc1cccc2ccccc12
[23]
  IC50: 3000 nM

## Cn1c(=O)c2c(ncn2CC(=O)Nc2ccc(-c3ccccc3)nn2)n(C)c1=O [ETC-159]
[24]
  inhibition in vivo at 10 mg/kg: 94%
[25]
  bioavailability: 100%

## NS(=O)(=O)c1ccc(NC(=S)N2CCN(C/C=C/c3ccccc3)CC2)cc1
[20]
  IC50: 2000 nM

## O=C(Nc1cccc2cccnc12)c1ccc(N2C(=O)[C@@H]3[C@H](C2=O)[C@@H]2C=C[C@H]3C2)cc1
[26]
  inhibition in vivo at 5 mg/kg: 71%

## O=C(O)CCCn1c2ccccc2c2nc3nonc3nc21
[20]
  IC50: 15000 nM

## CCCn1c(SCC(=O)Nc2nc3ccc(OC)cc3s2)nnc1-c1ccncc1
[3]
  IC50: 12 nM

## COc1cccc2c(=O)[nH]c(-c3ccc(C)cc3)cc12
[27]
  IC50: > 10000 nM
[16]
  IC50: 5.1 nM
[28]
  IC50: > 10000 nM
[17]
  IC50: 30 nM

## O=C(CCC1CCCC1)Nc1nnc2n1CCS2
[29]
  IC50: 1900 nM

## Cc1ccc2nc(NC(=O)CSc3nc4c(c(=O)n3-c3ccccc3)SCC4)sc2c1
[3]
  IC50: 27 nM

## CN(C)c1ccc2c(-c3ccc(C(=O)NCCCCCC(=O)N[C@@H](CCCNC(=N)N)C(=O)N[C@@H](CCC(=O)O)C(=O)N[C@H]4CCn5cc(nn5)-c5cc(C(=O)O)cc(c5)C5=CN(CC[C@@H](C(=O)N[C@@H](CCC(=O)O)C(N)=O)NC(=O)CNC(=O)[C@H](CC(=O)O)NC(=O)CNC4=O)NN5)cc3C(=O)[O-])c3ccc(=[N+](C)C)cc-3oc2c1
[19]
  Kd: 440 nM

## O=C(CN1CCCC2=C1C(=O)N(C1CC1)C2=O)Nc1ccc(-c2cccnc2)nn1
[14]
  bioavailability: 81%
[15]
  solubility: 60 µg/mL (≈ 148 µM)
